Test results as given in US20050130989A1, “N-arylheteroaromatic products compositions containing them and use thereof” (Aventis Pharma S. A., priority 2003, published 2005).

Key:
[1] = system: HDMEC cells (Human Dermal Microvascular Endothelial Cells); experiment: Detachment of endothelial cells (test for determining the inhibition of vascularization); format: cell-based; details: two hours of treatment, calcein labeling, relative to untreated control
Text: A test for determining the detachment of the endothelial cells was developed in order to select the products with regard to their “in vitro” activity. This test for determining the detachment of endothelial cells is characterized in that the endothelial cells, inoculated into plates whose bottom is covered with a binder preferably chosen from gelatin, fibronectin and vitronectin, after culturing, are supplemented with a medium containing the test compound, and the cells are then labeled with a fluorescent substance, the, cells which have become detached are removed by washing and the fluorescence of the remaining cells is counted in a fluorimeter.
This test consists in measuring the detachment of endothelial cells cultured on substrata based on a binder preferably chosen from fibronectin, vitronectin and gelatin. […] The fluorescence of the remaining cells is counted in a fluorimeter. […]
The evaluation of the detachment of the endothelial cells in vitro is determined in the following manner. […] The fluorescence of the cells that remain attached to the substratum of the well is counted using a fluorimeter, Spectrafluor Plus (Tecan excitation 485 nm, and emission 535 nm). The data are the mean of six different samples and are expressed as the percentage of the control (untreated cells). […]

tubulin = biological target: T1, tubulin (Sus scrofa, UniProt P02550+P02554); experiment: Evaluation of the inhibition of tubulin polymerization (turbidimetry); format: biochemical, pig; details: tubulin 10 μm (1 mg/ml), 37° C., turbidity at 350 nm; concentration that inhibits the rate of polymerization by 50%; read-out: Inhibition of tubulin polymerization IC 50 (μm)
T1 construct: Tubulin is purified from pig brain according to published methods; from tissue; host or cells: pig brain
Method in brief: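 Pig brain tubulin (>95% pure), 10 μm in MES pH 6.8/30% glycerol buffer plus 1 mM GTP and 6 mM MgCl2, with compound at 0.5–10 μm added before polymerization. Polymerization triggered by shift from 6° C to 37° C, followed by turbidity at 350 nm; IC50 is 50% inhibition of polymerization rate.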

HCT116 cells = experiment: Inhibition of proliferation of the human colon tumor line HCT116 ([14C]-thymidine incorporation); format: cell-based; details: Homo sapiens, HCT-116, 48 h, 48 hours at 37° C., read-out: Inhibition of HCT116 proliferation IC 50 (μm)
Method in brief: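 HCT116 cells (5000/well) in DMEM with 10% fetal calf serum incubated 48 h at 37° C with [14C]-thymidine (0.1 μCi/well) and compound up to 10 μm (DMSO ≤0.5%). Incorporated radioactivity counted; IC50 is concentration cutting radioactivity by 50% versus untreated control.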

T1 sequence (P02550 whole entry): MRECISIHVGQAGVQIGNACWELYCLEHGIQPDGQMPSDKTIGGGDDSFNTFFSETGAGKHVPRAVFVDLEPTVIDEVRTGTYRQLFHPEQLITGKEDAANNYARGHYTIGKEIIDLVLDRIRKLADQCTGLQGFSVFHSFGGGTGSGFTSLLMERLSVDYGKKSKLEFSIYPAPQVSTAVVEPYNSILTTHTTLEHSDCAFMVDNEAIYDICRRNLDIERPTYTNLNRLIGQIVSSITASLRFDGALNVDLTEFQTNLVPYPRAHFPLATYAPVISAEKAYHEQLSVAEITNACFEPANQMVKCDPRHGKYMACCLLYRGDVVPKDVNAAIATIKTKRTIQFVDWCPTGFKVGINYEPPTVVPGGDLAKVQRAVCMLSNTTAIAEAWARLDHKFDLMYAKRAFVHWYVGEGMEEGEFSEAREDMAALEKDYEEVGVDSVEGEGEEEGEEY
T1 sequence (P02554 whole entry): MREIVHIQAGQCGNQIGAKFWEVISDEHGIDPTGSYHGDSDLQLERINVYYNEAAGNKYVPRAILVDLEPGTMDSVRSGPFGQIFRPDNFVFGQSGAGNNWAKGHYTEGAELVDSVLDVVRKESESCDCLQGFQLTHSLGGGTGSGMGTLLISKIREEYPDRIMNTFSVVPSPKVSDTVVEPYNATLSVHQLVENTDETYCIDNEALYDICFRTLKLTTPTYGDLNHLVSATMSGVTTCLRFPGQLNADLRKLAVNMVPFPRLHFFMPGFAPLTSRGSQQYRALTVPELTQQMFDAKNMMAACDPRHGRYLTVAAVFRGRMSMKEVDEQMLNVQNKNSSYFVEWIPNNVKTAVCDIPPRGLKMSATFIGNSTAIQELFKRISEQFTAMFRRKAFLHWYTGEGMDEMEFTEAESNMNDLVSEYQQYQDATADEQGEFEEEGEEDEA

Row | SMILES | Percentage detachment of HDMEC at 1 μm [1] | IC50 (tubulin) | IC50 (HCT116 cells) | melting point
1 | Cc1cc(C(=O)N2CCN(c3ccc(C)c(C)c3)CC2)n(-c2ccccc2)n1 [Example 2, [4-(3,4-Dimethylphenyl)piperazin-1-yl](5-methyl-2-phenyl-2H-pyrazol-3-yl)methanone] | 16% | 600 nM | 160 nM | 
2 | Cc1cc(C(=O)N2CCN(c3cccc(Cl)c3)CC2)n(-c2ccccc2)n1 [Example 1, [4-(3-Chlorophenyl)piperazin-1-yl](5-methyl-2-phenyl-2H-pyrazol-3-yl)methanone] | 22% | 600 nM | 2 nM | 
3 | CNC(=O)c1cccc(N2CCN(C(=O)c3cc(C)nn3-c3ccccc3)CC2)c1 [Example E116, N-Methyl-3-[4-(5-methyl-2-phenyl-2H-pyrazole-3-carbonyl)piperazin-1-yl]-benzamide] |  | 2070 nM | 11.3 nM | 180 °C
4 | Cc1cc(C(=O)N2CCN(c3nccc4ccccc34)CC2)n(-c2ccccc2)n1.Cl [Example E15, [4-(Isoquinolin-1-yl)piperazin-1-yl](5-methyl-2-phenyl-2H-pyrazol-3-yl)-methanone hydrochloride] |  | 14000 nM | 239 nM | 128 °C
5 | Cc1cc(C(=O)N2CCN(c3cccc(OC(F)(F)F)c3)CC2)n(-c2ccccc2)n1 [Example E11, [4-(3-Trifluoromethyloxyphenyl)piperazin-1-yl](5-methyl-2-phenyl-2H-pyrazol-3-yl)methanone] |  | 1000 nM | 12 nM | 107 °C
6 | Cc1cc(C(=O)N2CCN(c3cccc(N)c3)CC2)n(-c2ccccc2)n1 [Example E9, [4-(3-Aminophenyl)piperazin-1-yl](5-methyl-2-phenyl-2H-pyrazol-3-yl)methanone] |  | 3000 nM | 53.1 nM | 158 °C
7 | COc1cc(OC)cc(N2CCN(C(=O)c3cc(C(C)C)nn3-c3ccccc3)CC2)c1 [Example E71, [4-(3,5-Dimethoxyphenyl)piperazin-1-yl](5-isopropyl-2-phenyl-2H-pyrazol-3-yl)methanone] |  | 3740 nM | 200 nM | 116 °C
8 | Cc1cc(C)cc(N2CCN(C(=O)c3cc(C)nn3-c3ccccc3)CC2)c1 [Example E63, [4-(3,5-Dimethylphenyl)piperazin-1-yl](5-methyl-2-phenyl-2H-pyrazol-3-yl)methanone] |  | 600 nM | 2.2 nM | 109 °C
